What was measured:
RIPK1(1-330) protein [1] = biological target: T1, RIPK1(1-330) protein (Homo sapiens, UniProt Q13546); experiment: ADP-Glo kinase activity assay at different ATP concentrations; format: biochemical; set-up: RIPK1(1-330) protein with a final concentration of 2 μL and ATP; made in house; details: FIG. 4
T1 sequence (Q13546 1-330): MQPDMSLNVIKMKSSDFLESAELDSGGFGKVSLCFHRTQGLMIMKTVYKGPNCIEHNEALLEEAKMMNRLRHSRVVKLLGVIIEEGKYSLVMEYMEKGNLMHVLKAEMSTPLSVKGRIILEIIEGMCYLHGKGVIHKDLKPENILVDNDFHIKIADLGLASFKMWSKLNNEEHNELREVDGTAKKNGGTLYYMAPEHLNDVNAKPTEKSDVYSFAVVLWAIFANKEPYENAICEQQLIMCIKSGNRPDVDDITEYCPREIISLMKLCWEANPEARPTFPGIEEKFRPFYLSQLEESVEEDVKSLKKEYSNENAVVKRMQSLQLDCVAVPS
Method: The adopted biological test protocol was: The effect of compound QY-1-98 on the kinase activity of RIPK1(1-330) protein was tested. The purified RIPK1(1-330) protein in vitro retained the complete kinase activity domain and maintained good kinase activity. Through the IC50 of the compounds of the present invention inhibiting RIPK1 kinase activity in the environment with different concentrations of ATP, the binding mode of the compounds to RIPK1 is obtained. Nec-1s, a known ATP-noncompetitive inhibitor of RIPK1, was used as a control.
RIPK1(1-330) protein with a final concentration of […] and ATP (1× kinase buffer) with a corresponding concentration were added to the 384-well plate, with a […]. At least 3 duplicate wells were set in each group. The reaction was carried out at 37° C. for 2H. 5 μL of ADP-Glo reagent was added, which is used to stop the kinase reaction and remove residual ATP from the reaction system. The reaction solution was placed at room temperature for 40 min 10 μL of kinase detection reagent was added, which is used to convert ADP to ATP and luciferase and luciferin were introduced to detect ATP in the system. The reaction was carried out at room temperature for 1H. Luminescence was detected using the 7500 Fast Real-Time PCR System. The IC50 of the compounds inhibiting the kinase reaction was calculated using Prism Graphpad statistical software.

RIPK1(1-330) protein [2] = biological target: T1, RIPK1(1-330) protein; experiment: Protein thermal shift assay; format: binding; set-up: RIPK1(1-330) protein (final concentration 2 μM) was expressed and purified in insect cells; made in house; host or cells: insect cells; details: FIG. 3
Method: The interaction between RIPK1 protein and compound was analyzed by studying the thermal stability of the protein. Small molecule ligands can stabilize proteins by binding to proteins, increasing the Tm value of proteins. The interaction between the compound and the protein can be indirectly judged by testing the effect of the compound on the thermal stability of the protein. RIPK1 protein contains kinase domain (1-312), intermediate domain (312-582) and death domain (582-669), and RIPK1 (1-330) protein purified in vitro contains all kinase domains.
The adopted biological test protocol was to test the effect of compound QY-1-98 on the thermal stability of RIPK1 (1-330) protein using protein thermal shift assay, using the known RIPK1 inhibitor Nec-1s as a control.
RIPK1(1-330) protein (final concentration 2 μM) was expressed and purified in insect cells, mixed with the corresponding concentration of compound and SYRO Orange Protein gel stain dye (final concentration 5×). 10 μL of final volume was added to 384-well plate, and at least 3 duplicate wells were set in each group. After the samples were placed for 2 hours at room temperature, the 7500 Fast Real-Time PCR System was applied to test the thermal stability of the protein by […]. The temperature was set at 25° C.-95° C., 0.015° C./s. The datas were analyzed using protein thermal shift software.

change of IC50 with the increase of ATP concentration (RIPK1(1-330) protein [1]; different ATP concentrations): does not change significantly
Compound: Cc1noc([C@@H]2CCCN2C(=O)C(C)(C)Oc2ccc(Cl)cc2)n1 [QY-1-98]
activity of RIPK1 (1-330) protein kinase in vitro (RIPK1(1-330) protein [1]; ADP-Glo): can inhibit the activity of RIPK1 (1-330) protein kinase in vitro | thermal stability of RIPK1 (1-330) protein (RIPK1(1-330) protein [2]): can significantly improve the thermal stability

From patent publication US12662473B2, “Inhibitors for programmed cell necrosis and preparation method therefor and use thereof” (SHANGHAI INSTITUTE OF ORGANIC CHEMISTRY, CHINESE ACADEMY OF …, priority 2019, dated 2026)
